Experimental data taken from patent US20220380341A1, “INHIBITORS OF HIV-1 NEF FOR THE TREATMENT OF HIV DISEASE” (priority 2018, published 2022).
“And” between values parts separate entries of the source, which are not always exact repeats. Equal entries are not always repeated. Where two headings read alike, the source gives them in different places.

Assays:
[1] = system: HIV-1NL4-3; test: HIV-1 infectivity assay in TZM-bl reporter cell line (LTR-luciferase, 48 h); assay type: cell-based; conditions: for inhibition at 1 µM: Human immunodeficiency virus 1, TZM-bl
How it was run: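 Percent inhibition of HIV-1NL4-3 infectivity at 1 μM compound, from luciferase output of TZM-bl cells 48 h after infection. Scale anchors are DMSO-treated wild-type infection as zero and DMSO-treated Nef-defective infection as full Nef-dependent effect.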

[2] = biological target: HIV-1 NefNL4-3 (Human immunodeficiency virus type 1 group M subtype B, UniProt P03406, A33V/T15A/T51N/V11I); test: Surface plasmon resonance binding to recombinant full-length Nef (NL4-3); conditions: for RU30/RUNef (extent of binding): response units at 30 μM relative to Nef immobilized on the SPR chip
[3] = system: TZM-bl cell line; assay type: cell-based; conditions: human, 1 μM
How it was run: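 TZM-bl cells (HIV-1 LTR-luciferase) infected with HIV-1NL4-3 with compound at 1 μM; luciferase read 48 h later. Percent inhibition normalized to DMSO wild-type infection (0%) and Nef-defective HIV-1 infection (100% of Nef-dependent effect). Viability in uninfected TZM-bl cells by Cell Titer Blue.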

[4] = 1.0 μM, TZM-bl reporter cell line, Table 4, read-out: % Infectivity Inhibition
[5] = 48 h, Table 1, TZM-bl cells, 1 μM, 48 h, 100% = Nef-defective HIV-1, read-out: HIV-1 Infectivity % Inhibition Norm. to Δ-Nef @ 1 μM
[6] = KD, M, Table 4, SPR fit 1:1 Langmuir, KD = koff/kon
[7] = Table 4, 1:1 Langmuir fit, T = 1/koff
[8] = KD, M, Table 4, SPR fit 2-step induced fit, KD = koff/kon × koff2/(koff2 + kon2)
[9] = Nef NL4-3 Binding, SPR 1:1 or 2-site fitting KD2, Table 1, 2-site fit, second component
[10] = Table 4, 2-step induced fit, T = 1/koff2
[11] = read-out: Nef NL4-3 Binding, SPR 1:1 or 2-site fitting KD2, Table 1, 2-site fit, second component
[12] = Nef NL4-3 Binding, SPR 2-state fitting KD, Table 1, 2-step induced-fit model

Compound | inhibition at 1 µM [1, 4] [%] | inhibition at 1 µM [1, 5] [%] | Kd [2] | Kd [2, 6] [nM] | T, minutes (residence time) [2, 7] | RU30/RUNef (extent of binding) [2] | % Cell Viability [3] [%] | Percent Viability @ 1 μM (TZM-bl cells) [3] [%] | Nef NL4-3 Binding, SPR 1:1 or 2-site fitting KD1 ([2]; Table 1, 1:1 Langmuir fit where the KD2 cell says '1 to 1 fitting', else 2-site fit) | HIV-1 Infectivity % Inhibition Norm. to Δ-Nef @ 1 μM ([1]; Table 1, TZM-bl cells, 1 μM, 48 h, 100% = Nef-defective HIV-1) [%] | Kd [2, 8] [nM] | Kd [2, 9] [nM] | T, minutes (residence time) [2, 10] | Kd [2, 11] [nM] | Kd [2, 12] [nM]
O=C(OCc1ccccc1)N1CCC(c2nn(-c3nc4ccncc4[nH]3)c(O)c2CCc2ccc(F)cc2)CC1 [Compound I-310, benzyl 4-{4-[2-(4-fluorophenyl)ethyl]-5-hydroxy-1-{3H-imidazo[4,5-c]pyridin-2-yl}-1H-pyrazol-3-yl}piperidine-1-carboxylate] | 36.6 | 36.6 | 50.2 nM | 50.2 | 3.56E + 02 minutes | 2.36E- 03 | 100 | 105.6 |  |  |  |  |  |  | 
CS(=O)(=O)c1cccc(-c2nn(-c3nc4cccnc4[nH]3)c(O)c2CCc2ccc(F)cc2)c1 [Compound I-311, 4-[2-(4-fluorophenyl)ethyl]-1-{3H-imidazo[4,5-b]pyridin-2-yl}-3-(3-methanesulfonylphenyl)-1H-pyrazol-5-ol] |  | 29.8 | 1010 nM |  |  |  |  | 94.5 |  |  |  |  |  |  | 
Oc1c(CC2CCOCC2)c(C2CCOCC2)nn1-c1nc2cccnc2[nH]1 [Compound I-312, 1-{3H-imidazo[4,5-b]pyridin-2-yl}-3-(oxan-4-yl)-4-[(oxan-4-yl)methyl]-1H-pyrazol-5-ol] |  | -33.7 |  |  |  |  |  | 100.1 | No Interaction |  |  |  |  |  | 
Oc1c(CC2CCOCC2)c(-c2ccc(F)cc2)nn1-c1nc2cccnc2[nH]1 [Compound I-313, 3-(4-fluorophenyl)-1-{3H-imidazo[4,5-b]pyridin-2-yl}-4-[(oxan-4-yl)methyl]-1H-pyrazol-5-ol] | 33.2 | 33.2 | 480 nM | 480 | 2.92E + 01 minutes | 5.15E- 03 | 96.7 | 96.7 |  |  |  |  |  |  | 
Oc1c(CCc2ccc(F)cc2)c(C2CCOCC2)nn1-c1nc2cccnc2[nH]1 [Compound I-314, 4-[2-(4-fluorophenyl)ethyl]-1-{3H-imidazo[4,5-b]pyridin-2-yl}-3-(oxan-4-yl)-1H-pyrazol-5-ol] | 0 | -1 | 705 nM | 705 | 1.79E + 01 minutes | 2.97E- 03 | 100 | 100.1 |  |  |  |  |  |  | 
Oc1c(CC2CCOCC2)c(C2CC2)nn1-c1nc2cccnc2[nH]1 [Compound I-315, 3-cyclopropyl-1-{3H-imidazo[4,5-b]pyridin-2-yl}-4-[(oxan-4-yl)methyl]-1H-pyrazol-5-ol] |  | 28.5 | 1880 nM |  |  |  |  | 100.6 |  |  |  |  |  |  | 
Oc1c(CC2CCOCC2)c(C2CC(F)(F)C2)nn1-c1nc2cccnc2[nH]1 [Compound I-316, 3-(3,3-difluorocyclobutyl)-1-{3H-imidazo[4,5-b]pyridin-2-yl}-4-[(oxan-4-yl)methyl]-1H-pyrazol-5-ol] | 32.8 |  |  | 4490 | 5.19E + 00 minutes | 1.19E- 03 | 99.7 |  |  |  |  |  |  |  | 
Cn1c(-n2nc(-c3ccc(C(F)(F)F)cc3)c(CCc3ccc(F)cc3)c2O)nc2ccccc21 [Compound I-401, 4-[2-(4-fluorophenyl)ethyl]-1-(1-methyl-1H-1,3-benzodiazol-2-yl)-3-[4-(trifluoromethyl)phenyl]-1H-pyrazol-5-ol] | 99.6 |  | 1890 nM and 237 nM |  |  | 2.01E- 02 | 86.4 |  |  | 52.3 | 78400 | 2470 | 1.45E + 03 minutes | 18100 | 
Cn1c(-n2nc(-c3ccc(S(C)(=O)=O)cc3)c(CCc3ccc(F)cc3)c2O)nc2ccccc21 [Compound I-403, 4-[2-(4-fluorophenyl)ethyl]-3-(4-methanesulfonylphenyl)-1-(1-methyl-1H-1,3-benzodiazol-2-yl)-1H-pyrazol-5-ol] | 4.1 | 4.1 | 2400 nM | 2400 | 3.63E + 00 minutes | 2.88E- 03 | 99.9 | 99.9 |  |  |  |  |  |  | 
CCOC(=O)c1nn(-c2nc3ccccc3[nH]2)c(O)c1CCc1ccc(F)cc1 [Compound I-404, ethyl 1-(1H-1,3-benzodiazol-2-yl)-4-[2-(4-fluorophenyl)ethyl]-5-hydroxy-1H-pyrazole-3-carboxylate] |  | 1.3 | 128 nM |  |  |  |  | 100.5 |  |  |  |  |  |  | 
Cn1c(-n2nc(-c3cccc(S(C)(=O)=O)c3)c(CCc3ccc(F)cc3)c2O)nc2ccccc21 [Compound I-405, 4-[2-(4-fluorophenyl)ethyl]-3-(3-methanesulfonylphenyl)-1-(1-methyl-1H-1,3-benzodiazol-2-yl)-1H-pyrazol-5-ol] | 0 | -9.6 | 4390 nM | 4390 | 2.32E + 00 minutes | 3.25E- 03 | 95.7 | 95.7 |  |  |  |  |  |  | 
O=C(c1nn(-c2nc3ccccc3[nH]2)c(O)c1CCc1ccc(F)cc1)N1CCCCC1 [Compound I-406, 1-(1H-1,3-benzodiazol-2-yl)-4-[2-(4-fluorophenyl)ethyl]-3-(piperidine-1-carbonyl)-1H-pyrazol-5-ol] | 0 | -4.4 | 549 nM |  |  | 7.13E- 03 | 100 | 109.7 |  |  | 2670 | 1230 | 2.85E + 00 minutes |  | 2670
Oc1c(CCc2ccc(F)cc2)c(C2CCNCC2)nn1-c1nc2ccc(Cl)cc2[nH]1 [Compound I-503, 1-(5-chloro-1H-1,3-benzodiazol-2-yl)-4-[2-(4-fluorophenyl)ethyl]-3-(piperidin-4-yl)-1H-pyrazol-5-ol] | 0 | -94.1 | 256 nM |  |  | 1.05E- 02 | 90.7 | 90.7 |  |  | 0.617 |  | 3.18E + 04 minutes | 3020 | 0.511
Oc1c(CC2CCNCC2)c(-c2ccc(C(F)(F)F)cc2)nn1-c1nc2ccccc2[nH]1 [Compound I-504, 1-(1H-1,3-benzodiazol-2-yl)-4-[(piperidin-4-yl)methyl]-3-[4-(trifluoromethyl)phenyl]-1H-pyrazol-5-ol] |  | -43.7 | 10600 nM |  |  |  |  | 101.3 |  |  |  |  |  |  | 
CS(=O)(=O)c1ccc(-c2nn(-c3nc4cc(Cl)ccc4[nH]3)c(O)c2CCC2CCNCC2)cc1 [Compound I-550, 1-(5-chloro-1H-1,3-benzodiazol-2-yl)-3-(4-methanesulfonylphenyl)-4-[2-(piperidin-4-yl)ethyl]-1H-pyrazol-5-ol] | 0 | -12.9 | 282 nM |  |  | 1.75E- 02 | 98.8 | 98.8 |  |  | 8.54 |  | 3.33E + 03 minutes | 6200 | 8.54
